Results taken from paper PMC9500407, “Quantifying the transport of biologics across intestinal barrier models in real-time by fluorescent imaging” (Frontiers in Bioengineering and Biotechnology, 2022).
Like-named read-outs stand apart in the source and are kept apart here.

Key:
[1] = cited from earlier work
Excerpt: page 15: Supplementary Table 4. Comparison of apparent permeability in chips using mono-and coculture tubules and Transwell system of 12 model drugs.

[2] = cited from earlier work; remark: listed apart in the source
Excerpt: page 17: Supplementary Table 5. Direct statistical comparison of drug transport in Transwells, mono-and coculture tubules of 12 model drugs using an unpaired t-test.

[3] = tested on: Caco-2 monolayers (Transwell); test: Lucifer Yellow leakage after drug exposure, Transwell; conditions: 100 µM LY co-applied, after 2 h of exposure to 10 µM drug, Caco-2 Transwell
[4] = tested on: Caco-2:HT29-MTX E12 coculture tubules (chip); test: Lucifer Yellow leakage after drug exposure, chip coculture; conditions: 100 µM LY co-applied, after 2 h of exposure to 10 µM drug
[5] = tested on: Caco-2 monoculture tubules (chip); test: Lucifer Yellow leakage after drug exposure, chip monoculture; conditions: 100 µM LY co-applied, after 2 h of exposure to 10 µM drug
[6] = tested on: Caco-2 monolayers (Transwell); test: In vitro drug absorption study, Transwell Caco-2 monolayer, Papp by LC-MS; conditions: Caco-2 Transwell, 19-21 days culture, apical pH 6.5 / basolateral pH 7.4 (TB, 10 mM HANKS/HBSS), 10 µM drug in 0.1% DMSO, 2 h, 37°C, static, mean ± SEM, at least three biological replicates
[7] = tested on: Caco-2:HT29-MTX E12 coculture tubules (chip); test: In vitro drug absorption study, OrganoPlate chip coculture tubules, Papp by LC-MS; conditions: OrganoPlate Caco-2:HT29-MTX E12 6:1 coculture tubules, day 4, A-B, apical pH 6.5 / basolateral pH 7.4, 10 µM drug in 0.1% DMSO, 2 h, 37°C, constant flow, mean ± SEM, at least three biological replicates
[8] = tested on: Caco-2 monoculture tubules (chip); test: In vitro drug absorption study, OrganoPlate chip monoculture tubules, Papp by LC-MS; conditions: OrganoPlate Caco-2 monoculture tubules, day 4, A-B, apical pH 6.5 / basolateral pH 7.4, 10 µM drug in 0.1% DMSO, 2 h, 37°C, constant flow, mean ± SEM, at least three biological replicates
[9] = tested on: Caco-2:HT29-MTX E12 coculture tubules; test: Image based analysis of SNAC induced semaglutide transport; format: in vitro ADME, human
Excerpt: semaglutide (purple) and FITC-dextran (green). Scale bar is 500 µm. Data represent the mean
of at least two biological replicates per condition.

[10] = human, ref Takenaka et al., 2016
[11] = known route of the drug, no reference given

Compound | FA in human % (fraction absorbed in human) ([1]; in vivo) | Transport route [2] | Lucifer Yellow leakage (%) Transwell [3] | Lucifer Yellow leakage (%) Chip Caco-2:HT29-MTX E12 [4] | Lucifer Yellow leakage (%) Chip Caco-2 [5] | TW Caco-2 Papp (apparent permeability coefficient from A B) [6] | Chip Caco-2:HT29-MTX E12 Papp (apparent permeability coefficient from A B) [7] | Chip Caco-2 Papp (apparent permeability coefficient from A B) [8] | FA in human % (fraction absorbed in human) [1, 10] | FA in human % (fraction absorbed in human) ([1]; human, ref Youhanna and Lauschke, 2021) | Chip Caco-2:HT29-MTX E12 Papp (apparent permeability coefficient from A B) ([7]; listed as Erythromycin) | Transport route [2, 11] | Effect on cell layer (micrographs) ([9]; 40 mM SNAC) | Effect on cell layer ([9]; SNAC 20 mM or 40 mM with semaglutide-Cy3 5 µM, approx. 4 h, bright field and dextran)
NC(=O)N1c2ccccc2C=Cc2ccccc21 [Carbamazepine] | 100% | Transcellular | 0.02% | 0.01% | 0.02% | 204.43± 9.20 × 10-6 cm/sec | 140.04 ± 6.25 × 10-6 cm/sec | 0.00021399 cm/s | – | – | – | – | – | –
CN/C(=N/CCSCc1nc[nH]c1C)NC#N [Cimetidine] | – | Paracellular | 0.03% | 0.02% | 0.03% | 5.08± 1.39 × 10^-6 cm/sec | 11.87 ± 3.41 × 10^-6 cm/sec | 9.79± 3.41 × 10^-6 cm/sec | 62% | – | – | – | – | –
CC[C@H]1OC(=O)[C@H](C)[C@@H](O[C@H]2C[C@@](C)(OC)[C@@H](O)[C@H](C)O2)[C@H](C)[C@@H](O[C@@H]2O[C@H](C)C[C@H](N(C)C)[C@H]2O)[C@](C)(O)C[C@@H](C)C(=O)[C@H](C)[C@@H](O)[C@]1(C)O [Erythromicin] | – | – | 0.03% | 0.01% | 0.04% | 1.2e-06 cm/s | 0.99 ± 0.32 × 10^-6 cm/sec | 1.33e-06 cm/s | – | 35% | 9.9e-07 cm/s | – | – | –
CN(C)C(=O)C(CCN1CCC(O)(c2ccc(Cl)cc2)CC1)(c1ccccc1)c1ccccc1 [Loperamide] | – | – | 0.02% | 0.02% | 0.68% | 58.60± 8.62 × 10^-6 cm/sec | 2.75 ± 1.13 × 10^-6 cm/sec | 11.03± 1.62 × 10^-6 cm/sec | – | – | – | – | – | –
COCCc1ccc(OCC(O)CNC(C)C)cc1 (centres unmarked) [Metoprolol] | – | – | 0.02% | 0.09% | 0.02% | 47.63± 5.44 × 10-6 cm/sec | 44.99 ± 1.05 × 10-6 cm/sec | 17.67± 4.98 × 10-6 cm/sec | – | – | – | – | – | –
CC(C)NCC(O)COc1cccc2ccccc12 (centres unmarked) [Propranolol] | – | – | 0.02% | 0.03% | 0.03% | 101.68± 23.00 × 10-6 cm/sec | 86.05 ± 21.67 × 10-6 cm/sec | 71.42± 5.08 × 10-6 cm/sec | – | – | – | – | – | –
C=C[C@H]1C[N@@]2CC[C@H]1C[C@@H]2[C@@H](O)c1ccnc2ccc(OC)cc12 [Quinidine] | – | – | – | – | – | – | – | – | – | – | – | Transcellular | – | –
CNC(=C[N+](=O)[O-])NCCSCc1ccc(CN(C)C)o1 [Rantidine] | – | – | 0.02% | 0.01% | 0.02% | 3.22± 0.93 × 10^-6 cm/sec | 2.29 ± 0.27 × 10^-6 cm/sec | 1.80± 0.27 × 10^-6 cm/sec | 50% | – | – | Paracellular | – | –
O=C([O-])CCCCCCCNC(=O)c1ccccc1O.[Na+] [SNAC, salcaprozate sodium] | – | – | – | – | – | – | – | – | – | – | – | – | partial removal of cell layer | irreversible damage to the cell layer
CC(C)(C)NCC(O)c1cc(O)cc(O)c1 (centres unmarked) [Terbutaline] | 44% | Paracellular | 0.02% | 0.01% | 0.02% | 1.85± 0.10 × 10-6 cm/sec | 5.09 ± 0.06 × 10-6 cm/sec | 7.11± 0.43 × 10-6 cm/sec | – | – | – | – | – | –
CC(=O)CC(c1ccccc1)c1c(O)c2ccccc2oc1=O (centres unmarked) [Warfarin] | – | – | 0.02% | – | – | 0.00024341 cm/s | 0.00030039 cm/s | 160.97± 40.49 × 10-6 cm/sec | – | – | – | – | – | –
